The test system of experiment [1] is Botrytis cinerea. As to conditions: in vivo.
Experiment [2] relates to Pyricularia oryzae. The class given is in vivo.
The test system of experiment [3] is Phytophthora infestans. The class given is in vivo.
Experiment [4] relates to Sphaerotheca fuliginea. In words: Cucumber powdery mildew preventive test. The format is in vivo. The protocol: In a greenhouse, cucumber (variety: Sagamihanshiro) planted in a plastic pot having a diameter of 5 cm was grown to the 3rd to 5th-leaf stage. Spray was carried out in the same manner as in Test example 1, and 3 days after the spray, a conidia suspension prepared from Sphaerotheca fuliginea were inoculated on the leaf surface. After inoculation, the pots were placed in a thermostatic greenhouse (20 to 25° C.), and controlling effects were examined after 7 days from the inoculation. In the examination, a ratio of lesion area occupied per one leaf of cucumber was determined according to the same index as in Test example 1, and the control value and the theoretical value according to Colby's formula were similarly calculated.
Wettable powder prepared in compliance with Comparative Preparation Example 4 containing the compounds indicated in Table 7-9 were sprayed to the cucumber leaves, a conidiospore suspension prepared from Sphaerotheca fuliginea was inoculated onto the plants, and the controlling effects were examined in a manner similar to Test Example 6.

Experiment [5] concerns Pseudoperonospora cubensis. Briefly: Cucumber downy mildew preventive test. As to conditions: Table 8, 7 days after inoculation. The class given is in vivo. The protocol:
In a greenhouse, cucumber (variety: Sagamihanshiro) planted in a plastic pot having a diameter of 5 cm was grown to the 3rd to 5th-leaf stage. Spray was carried out in the same manner as in Test example 1, and after drying the chemical liquid, the pots were transferred into a greenhouse. After 3 days from the spray, a zoosporangium suspension of Pseudoperonospora cubensis was inoculated. After inoculation, the pots were placed in a high-humidity chamber (20 to 25° C.), transferred into a greenhouse on the next day, and controlling effects were examined after 7 days from the inoculation. A ratio of lesion area occupied per one leaf of cucumber was determined according to the same index as in Test example 1, and the control value and the theoretical value according to Colby's formula were similarly calculated.

The test system of experiment [6] is Blumeria graminis. In words: Barley powdery mildew preventive test. As to conditions: Table 4; treatment concentration 2 ppm; 8 days after inoculation. The format is in vivo. On the procedure:
Barley plants (variety: Akashinriki) planted in plastic pots having a diameter of 5 cm were grown indoors to the second to fourth leaf stage. Wettable powder containing the compounds indicated in Table 4 were sprayed in the same manner as in Test Example 1, and after the chemical had dried, conidia of Blumeria graminis was inoculated onto the leaves. Following inoculation, the pots were transferred to a constant-temperature chamber (20° C. to 25° C.), and control effects were examined 8 days after inoculation.

[7] abbreviates: Table 6-2, treatment concentration 2 ppm, 5 days after inoculation.
Where [8] appears, read: Table 3-5 (Comparative Example 2), treatment concentration 0.4 ppm.
Where [9] appears, read: Table 3-4, group b ingredient alone, treatment concentration 10 + 10 ppm.
Setting [10] is: Table 3-3, treatment concentration 10 ppm.
Where [11] appears, read: Table 3-2, treatment concentration 10 ppm.
The mark [12] stands for this setting: Table 3-4, group b ingredient alone, treatment concentration 10 + 2 ppm.
[13] abbreviates: Table 6-2, treatment concentration 0.08 ppm, 5 days after inoculation.
[14] abbreviates: treatment concentration 0.08 ppm.
Setting [15] is: Table 3-3, treatment concentration 50 ppm.

Read-outs that look alike come from different tables or passages of the source.

As for `CC(C)(C)C(O)C(Oc1ccc(Cl)cc1)n1cncn1` (stereo not drawn) [Triadimenol (b-33), Triadimenol], the Preventive value in experiment [1] is recorded as 17; in experiment [2] (Table 3-4, group b ingredient alone, treatment concentration printed 10 + 250 ppm), 33.

In experiment [3] (setting [7]), `Cc1ccc(C(C)NC(=O)[C@@H](NC(=O)OC(C)C)C(C)C)cc1` (stereo partly drawn) [Iprovalicarb (b-50), Iprovalicarb] registered a Preventive value of 50.

On to `O=C(Nc1ccccc1)N(Cc1ccc(Cl)cc1)C1CCCC1` [Pencycuron (b-76), Pencycuron], for which the Preventive value is 33 in experiment [4] (in vivo) and 40 in experiment [2] (Table 3-3, treatment concentration 250 ppm).

As for `C[C@@H](NC(=O)C(C#N)C(C)(C)C)c1ccc(Cl)cc1Cl` (stereo partly drawn) [Diclocymet], the Preventive value in experiment [1] worked out at 17; in experiment [4] (in vivo), 40; in experiment [2] (setting [8]), 67.

On to `OC(Cc1ccccc1Cl)(Cn1nc[nH]c1=S)C1(Cl)CC1` (stereo not drawn) [Prothioconazole (b-23), Prothioconazole], for which the Preventive value in experiment [1] and in experiment [2] (setting [9]) was 33 throughout.

In the case of `N#Cc1sc2c(=O)c3ccccc3c(=O)c=2sc1C#N` [Dithianon (b-81), Dithianon], the Preventive value in experiment [3] (Table 6-3, treatment concentration 2 ppm, 5 days after inoculation) turned out to be 33; in experiment [1], 33.

With `CCC(C)(NC(=O)c1cc(Cl)c(C)c(Cl)c1)C(=O)CCl` (stereo not drawn) [Zoxamide (b-39), Zoxamide], the Preventive value turned out to be 40 in experiment [3] (Table 6-2, treatment concentration 0.4 ppm, 5 days after inoculation) and 33 in experiment [5] (treatment concentration 0.4 ppm).

Regarding `Cc1ccc(NC(=O)c2snnc2C)cc1Cl` [Tiadinil (b-45), Tiadinil], the Preventive value in experiment [4] (in vivo) was determined as 40; in experiment [2] (setting [10]), 60.

For `CNC(=O)/C(=N/OC)c1ccccc1CO/N=C(C)/C(=N/OC)C(/C)=N/OC` [Orysastrobin (b-53), Orysastrobin], the Preventive value in experiment [1] came to 47; in experiment [2] (setting [11]), 60. The Control value in experiment [4] (in vivo) amounted to 40.

As to `CON=C(C(=O)OC)c1ccccc1CON=C(C)c1cccc(C(F)(F)F)c1` [Trifloxystrobin (b-55), Trifloxystrobin], the Preventive value in experiment [1] is listed as 33; in experiment [2] (setting [12]), 57.

In the case of `CNC(=O)/C(=N/OC)c1ccccc1Oc1ccccc1` [Metominostrobin (b-54), Metominostrobin], the Preventive value in experiment [2] (setting [12]) came out at 40.

In the case of `Cc1cc(O)no1` [Hymexazol (b-106)], the Preventive value stood at 33 in experiment [3] (Table 6-2, treatment concentration 250 ppm, 5 days after inoculation) and 17 in experiment [5] (treatment concentration 250 ppm).

`CSC(=O)c1cccc2nnsc12` [Acibenzolar-S-methyl (b-72), Acibenzolar-S-methyl]: the Preventive value worked out at 33 in experiment [4] (Table 7-7, treatment concentration 2 ppm, 7 days after inoculation) and 60 in experiment [2] (setting [9]).

Turning to `CCC1(C(=O)N[C@H](C)c2ccc(Cl)cc2)C(C)C1(Cl)Cl` (stereo partly drawn) [Carpropamid], the Preventive value is reported as 17 in experiment [1], 33 in experiment [4] (in vivo) and 67 in experiment [2] (setting [8]).

Turning to `O=C(NCCc1ncc(C(F)(F)F)cc1Cl)c1ccccc1C(F)(F)F` [Fluopyram (b-43), Fluopyram], the Preventive value in experiment [1] and in experiment [2] (setting [9]) was 40 in each case.

With `CCCCCCCCc1c(CC)nc2ncnn2c1N` [Ametoctradin (b-95), Ametoctradin], the results for the Preventive value in experiment [3] (in vivo) and in experiment [5] (treatment concentration 2 ppm) were 40 and 50, respectively.

In the case of `COP(=S)(OC)Oc1c(Cl)cc(C)cc1Cl` [Tolclofos-methyl], the Preventive value in experiment [4] (in vivo) and in experiment [2] (in vivo) was 33 throughout.

As to `O=C(CO)[C@@H](O)[C@@H](O)[C@H](O)CO` [D-tagatose (b-93), D-tagatose], the Preventive value came out at 40 in experiment [3] (Table 6-3, treatment concentration 5000 ppm, 5 days after inoculation); 33 in experiment [1]; 33 in experiment [4] (in vivo).

Take `CC(=O)Oc1c(C)c(C)nc2c(F)cc(C(C)(C)C)cc12` [Tebufloquin (b-64), Tebufloquin]: the Preventive value in experiment [4] (in vivo) was found to be 67; in experiment [2] (setting [10]) it was 73.

Consider `CC1CC(C)(C)c2cccc(NC(=O)c3cn(C)nc3C(F)F)c21` (stereo not drawn) [Compound of formula (II) (b-3)], for which the Control value in experiment [6] amounted to 67; in experiment [1] it was 0; in experiment [2] (Table 3-1, treatment concentration 2 ppm) it was 17.

In the case of `COC(=O)[C@@H](C)N(C(=O)Cc1ccccc1)c1c(C)cccc1C` [Benalaxyl-M (b-75), Benalaxyl-M], the Preventive value is given as 40 in experiment [3] (setting [7]) and 67 in experiment [5] (treatment concentration 2 ppm).

Consider `Cc1ccc(C(C)NC(=O)[C@@H](NC(=O)OC(C)C)C(C)C)cc1` (stereo partly drawn) [Iproyalicarb (b-50)], for which the Preventive value in experiment [5] (treatment concentration 2 ppm) worked out at 50.

`Cn1cc(C(=O)Nc2ccc(F)cc2-c2ccc(Cl)c(Cl)c2)c(C(F)F)n1` [Bixafen (b-4), Bixafen]: the Preventive value in experiment [1] and in experiment [2] (setting [9]) was 33 in each case.

On to `COC(=O)N(OC)c1ccccc1COc1ccn(-c2ccc(Cl)cc2)n1` [Pyraclostrobin (b-19), Pyraclostrobin], for which, in experiment [2] (setting [12]), the Preventive value was found to be 40.

In the case of `Cn1cc(C(=O)Nc2cccc3c2[C@@H]2CC[C@H]3C2=C(Cl)Cl)c(C(F)F)n1` (racemic) [Benzovindiflupyr (b-2), Benzovindiflupyr], in experiment [6], the Control value came to 50. In addition, the Preventive value in experiment [1] and in experiment [2] (setting [12]) was 40 each time.

In the case of `Cc1cc(C(F)(F)F)nn1CC(=O)N1CCC(c2nc(C3=NOC(c4c(F)cccc4F)C3)cs2)CC1` (stereo not drawn) [Oxathiapiprolin (b-84), Oxathiapiprolin], the Preventive value amounted to 67 in experiment [3] (Table 6-3, treatment concentration 0.0016 ppm, 5 days after inoculation); 33 in experiment [1]; 17 in experiment [4] (in vivo).

`C=CCOC1=NS(=O)(=O)c2ccccc21` [Probenazole (b-73), Probenazole]: the Preventive value is on record as 40 in experiment [4] (in vivo) and 60 in experiment [2] (setting [10]).

Take `Cc1cc(C)nc(Nc2ccccc2)n1` [Pyrimethanil (b-62), Pyrimethanil]: the Preventive value in experiment [1] was determined as 33; in experiment [2] (Table 3-4, group b ingredient alone, treatment concentration printed 10 + 50 ppm), 33.

As for `O=C(NCc1ncc(C(F)(F)F)cc1Cl)c1c(Cl)cccc1Cl` [Fluopicolide (b-40), Fluopicolide], the Preventive value turned out to be 40 in experiment [3] (setting [7]) and 67 in experiment [5] (treatment concentration 2 ppm).

On to `CNC(=O)/C(=N/OC)c1ccccc1COc1cc(C)ccc1C` [Dimoxystrobin (b-52), Dimoxystrobin], for which the Preventive value is 17 in experiment [1] and 73 in experiment [2] (setting [11]). In experiment [4] (in vivo), this molecule showed a Control value of 60.

As for `CCn1cc(C(=O)O)c(=O)c2cc3c(cc21)OCO3` [Oxolinic acid], the Preventive value in experiment [1] is given as 17; in experiment [4] (in vivo), 33; in experiment [2] (Table 3-5 (Comparative Example 2), treatment concentration 50 ppm), 33.

Regarding `Cc1c(Br)c2ccc(F)cc2n1S(=O)(=O)c1ncn(S(=O)(=O)N(C)C)n1` [Amisulbrom (b-97), Amisulbrom], the Preventive value amounted to 50 in experiment [3] (setting [13]) and 67 in experiment [5] (setting [14]).

Take `O=C1CCc2cccc3c2N1CC3` [Pyroquilon (b-104), Pyroquilon]: the values for the Preventive value in experiment [4] (in vivo) and in experiment [2] (setting [15]) were 7 and 67, respectively.

As to `CC(C)OC(=O)C(C(=O)OC(C)C)=C1SCCS1` [Isoprothiolane (b-71), Isoprothiolane], the figures for the Preventive value in experiment [4] (in vivo) and in experiment [2] (setting [15]) were 40 and 50, respectively.

`CO/N=C(/C1=NOCCO1)c1ccccc1Oc1ncnc(Oc2ccccc2Cl)c1F` [Fluoxastrobin (b-51), Fluoxastrobin]: the Preventive value in experiment [1] is recorded as 40; in experiment [2] (setting [11]), 60. The Control value in experiment [4] (in vivo) was determined as 60.

`C#CCOc1ccc(CCNC(=O)C(OCC#C)c2ccc(Cl)cc2)cc1OC` (stereo not drawn) [Mandipropamid (b-44), Mandipropamid]: the Preventive value in experiment [3] (setting [13]) and in experiment [5] (setting [14]) was 67 each time.

The values are drawn from patent US10201158B2, “Plant disease control composition and method for controlling plant disease by application of same” (MITSUI CHEMICALS AGRO, INC., priority 2014, dated 2019).
